Source: patent publication US7300946B2, “N-(substituted arylmethyl)-4-(disubstituted methyl) piperidines and pyridines” (Bayer CropScience AG, priority 2002, dated 2007)

Test system: tobacco budworm (Heliothis virescens [Fabricius])
Test: surface-treated diet test against the tobacco budworm
Type: in vivo
Conditions: tobacco budworm second instar larvae, 0.25 millimoles of candidate insecticide on the surface of the diet, five-day exposure; for Percent Mortality: compared to total number of insects infested; for Percent Growth Inhibition: inhibition of insect weight relative to untreated controls
In short: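 Wheat germ artificial diet surface-treated with 40 µL of 50 mM DMSO stock diluted 1:7 in 1:1 water/acetone (0.25 millimolar on diet), or sub-multiples for rate tests. One second-instar larva per well, 25° C, 60% RH, 5 days; percent weight inhibition vs DMSO controls and percent mortality.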

SMILES	Percent Mortality	Percent Growth Inhibition	Percent Mortality (surface-treated diet)	Percent Growth Inhibition (surface-treated diet)
FC(F)(F)c1ccc(C(=C2CCN(Cc3ccc(OC4=NCCCN4)cc3)CC2)c2ccc(C(F)(F)F)cc2)cc1 [Compound 823]	67%	100%		
CCCOc1ccc(C[N+]2([O-])CCC(C(OC(=O)Nc3cc(F)cc(F)c3)c3ccc(C(F)(F)F)cc3)CC2)cc1 (stereo not drawn) [Compound 741]	100%	100%		
O=C(Nc1ccc(C(F)(F)F)nc1)OC(c1ccc(C(F)(F)F)cc1)C1CCN(Cc2ccc(Oc3ccccn3)cc2)CC1 (stereo not drawn) [Compound 448]			100%	100%
Fc1ccc(C(=C2CCN(Cc3ccccc3)CC2)c2ccc(C(F)(F)F)cc2)cc1 [Compound 31]			17%	99%
O=C(Nc1c(F)c(F)c(F)c(F)c1F)OC(c1ccc(C(F)(F)F)cc1)C1CCN(Cc2ccc(Oc3ccccn3)cc2)CC1 (stereo not drawn) [Compound 243]			100%	100%
O=C(Nc1ccc(F)cc1F)OC(c1ccc(C(F)(F)F)cc1)C1CC[N+]([O-])(Cc2ccc(Oc3ncccn3)cc2)CC1 (stereo not drawn) [Compound 763]	100%	100%		
[O-][N+]1(Cc2ccc(Oc3ncccn3)cc2)CCC(=C(c2ccc(Cl)c(Cl)c2)c2ccc(Cl)c(Cl)c2)CC1 (stereo not drawn) [Compound 849]	100%	100%		
CCN(C(=O)OC(c1ccc(Cl)cc1)C1CCN(Cc2ccc(Oc3ccccn3)cc2)CC1)c1ccc(C(F)(F)F)cc1 (stereo not drawn) [Compound 637]			100%	100%
[O-][N+]1(Cc2ccc(Oc3ncccn3)cc2)CCC(=C(c2ccc(C(F)(F)F)cc2)c2ccc(C(F)(F)F)cc2)CC1 (stereo not drawn) [Compound 854]	100%	100%		
O=C(Nc1ccc(F)c(F)c1)OC(c1ccc(C(F)(F)F)cc1)C1CCN(Cc2ccc(Oc3ncccn3)cc2)CC1 (stereo not drawn) [Compound 732]	100%	100%		
FC(F)(F)c1ccc(C(Oc2ccc(C(F)(F)F)cn2)C2CCN(Cc3ccc(Oc4ccc(Cl)nn4)cc3)CC2)cc1 (stereo not drawn) [Compound 440]			100%	100%
CCn1nnc(-c2ccc(CN3CCC(C(OC(=O)Nc4cc(F)cc(F)c4)c4cc(Cl)cc(Cl)c4)CC3)cc2)n1 (stereo not drawn) [Compound 580]			100%	100%
CCn1nnc(-c2ccc(CN3CCC(C(OC(=O)Nc4ccc(-c5ccccc5)cc4)c4ccc(Oc5ccccc5)cc4)CC3)cc2)n1 (stereo not drawn) [Compound 621]			0%	4%
[O-][N+]1(Cc2ccc(Oc3ncccc3C(F)(F)F)cc2)CCC(=C(c2ccc(C(F)(F)F)cc2)c2ccc(C(F)(F)F)cc2)CC1 (stereo not drawn) [Compound 109]			100%	100%
CNC(=O)Oc1ccc(CN2CCC(=C(c3ccc(Cl)cc3)c3ccc(Cl)cc3)CC2)cc1 [Compound 789]	100%	100%		
O=C(Nc1ccc(F)cc1)OC(c1ccc(Cl)c(Cl)c1)C1CCN(Cc2ccc(Oc3ncccn3)cc2)CC1 (stereo not drawn) [Compound 722]	83%	100%		
CCON=Cc1ccc(CN2CCC(C(OC(=O)Nc3ccc(F)c(F)c3F)c3ccc(C(F)(F)F)cc3)CC2)cc1 (stereo not drawn) [Compound 201]			100%	100%
O=C(Nc1cc(Cl)cc(Cl)c1)OC(c1ccc(C(F)(F)F)cc1)C1CCN(Cc2ccc(Oc3ccccn3)cc2)CC1 (stereo not drawn) [Compound 232]			100%	100%
O=C(Nc1cc(F)cc(F)c1)OC(c1ccc(C(F)(F)F)cc1)C1CCN(Cc2ccc(NC(=O)c3c(F)cccc3F)cc2)CC1 (stereo not drawn) [Compound 552]			100%	100%
CC(C)OC(=O)Nc1ccc(C[N+]2([O-])CCC(=C(c3ccc(Cl)cc3)c3ccc(Cl)cc3)CC2)cc1 (stereo not drawn) [Compound 831]	100%	100%		
Nc1ccc(CN2CCC(C(OC(=O)Nc3ccc(Cl)cc3)c3ccc(C(F)(F)F)cc3)CC2)cc1 (stereo not drawn) [Compound 465]			0%	92%

SMILES	Percent Mortality	Percent Growth Inhibition	Percent Mortality (surface-treated diet)	Percent Growth Inhibition (surface-treated diet)
CCn1nnc(-c2ccc(CN3CCC(C(OC(=O)Nc4cccc(C(F)(F)F)c4)c4cccc(F)c4)CC3)cc2)n1 (stereo not drawn) [Compound 586]			100%	100%
O=C(Nc1cc(F)cc(F)c1)OC(c1ccc(C(F)(F)F)cc1)C1CCN(Cc2ccc(Oc3ccc(Cl)cn3)cc2)CC1 (stereo not drawn) [Compound 684]			100%	100%
CCn1nnc(-c2ccc(CN3CCC(C(OC(=O)Nc4ccc(C(F)(F)F)cc4)c4ccc(C)cc4)CC3)cc2)n1 (stereo not drawn) [Compound 600]			100%	100%
CCOC(=O)Nc1ccc(CN2CCC(=C(c3ccc(C(F)(F)F)cc3)c3ccc(C(F)(F)F)cc3)CC2)cc1 [Compound 55, N-{4-[(4-{bis[4-(trifluoromethyl)phenyl]methylene}piperidyl)methyl]phenyl}ethoxycarboxamide]			100%	100%
CCn1nnc(-c2ccc(CN3CCC(C(OC(=O)Nc4ccc(OC(F)(F)F)cc4)c4ccc(OC(F)(F)F)cc4)CC3)cc2)n1 (stereo not drawn) [Compound 295]			100%	92%
c1ccc(C(=C2CCN(Cc3ccc(Oc4ccccn4)cc3)CC2)c2ccccc2)cc1 [Compound 808]	0%	64%		
[O-][N+]1(Cc2ccc(Oc3ncccn3)cc2)CCC(=C(c2ccc(Cl)cc2)c2ccc(C(F)(F)F)cc2)CC1 (stereo not drawn) [Compound 847]	100%	100%		
O=C(Nc1cc(F)cc(F)c1)OC(c1ccc(C(F)(F)F)cc1)C1CC[N+]([O-])(Cc2ccc(Oc3ccc(Cl)nn3)cc2)CC1 (stereo not drawn) [Compound 768]	100%	100%		
CC(C)OC(=O)Nc1ccc(CN2CCC(=C(c3ccc(C(F)(F)F)cc3)c3ccc(C(F)(F)F)cc3)CC2)cc1 [Compound 58]			100%	100%
CCn1nnc(-c2ccc(CN3CCC(C(OC(=O)Nc4ccc(C(C)C)cc4)c4ccc(OC(F)(F)F)cc4)CC3)cc2)n1 (stereo not drawn) [Compound 286]			50%	94%
CCON=Cc1ccc(CN2CCC(C(OC(=O)Nc3cccc(F)c3)c3ccc(C(F)(F)F)cc3)CC2)cc1 (stereo not drawn) [Compound 535]			100%	100%
CNC(=O)OC(c1ccc(C(F)(F)F)cc1)C1CCN(Cc2ccc(Oc3ccccn3)cc2)CC1 (stereo not drawn) [Compound 771]	17%	72%		
CCCOc1ccc(CN2CCC(C(OC(=O)Nc3ccc(C(F)(F)F)cc3)c3ccc(F)cc3)CC2)cc1 (stereo not drawn) [Compound 478]			100%	100%
O=C(Nc1cc(F)cc(F)c1)OC(c1ccc(Cl)cc1)C1CCN(Cc2ccc(Oc3ncccn3)cc2)CC1 (stereo not drawn) [Compound 714]	100%	100%		
FC(F)(F)c1ccc(C(Oc2cc(C(F)(F)F)ccn2)C2CCN(Cc3ccc(Oc4ccc(Cl)nn4)cc3)CC2)cc1 (stereo not drawn) [Compound 441]			100%	100%
CC(C)OC(=O)Nc1ccc(CN2CCC(=C(c3ccc(F)cc3)c3ccc(F)cc3)CC2)cc1 [Compound 794]	83%	100%		
CCn1nnc(-c2ccc(CN3CCC(C(OC(=O)Nc4ccc(C(F)(F)F)cc4)c4ccc(Cl)c(Cl)c4)CC3)cc2)n1 (stereo not drawn) [Compound 576]			100%	100%
[O-][N+]1(Cc2ccc(Oc3ncccn3)cc2)CCC(=C(c2ccc(C(F)(F)F)cc2)c2ccc(Cl)c(F)c2)CC1 (stereo not drawn) [Compound 852]	100%	100%		
FC(F)(F)c1ccc(C(=C2CCN(Cc3ccc(OCc4nccs4)cc3)CC2)c2ccc(C(F)(F)F)cc2)cc1 [Compound 61]			100%	100%
CC(C)OC(=O)Nc1ccc(CN2CCC(=C(c3ccc(Cl)c(F)c3)c3ccc(Cl)c(F)c3)CC2)cc1 [Compound 796]	100%	100%		
CCn1nnc(-c2ccc(CN3CCC(C(OC(=O)c4ccc(C(F)(F)F)cc4)c4ccc(OC(F)(F)F)cc4)CC3)cc2)n1 (stereo not drawn) [Compound 307]			100%	92%
